# Where two headings read alike, the source gives them in different places.
# Assays:
# succinate dehydrogenase = target: T1, succinate dehydrogenase (Sus scrofa, UniProt A5GZW8+D0VWV4+Q007T0); test: Enzyme activity assay, succinate dehydrogenase (DCIP reduction); type: biochemical, porcine; settings: read-out: Inhibitors (10 μM, SQR)
# T1 construct: isolated from porcine hearts; from tissue; host or cells: porcine heart
# Method in brief: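 Porcine heart succinate dehydrogenase (2 nM) in 100 mM sodium phosphate pH 7.4, 0.3 mM EDTA, 20 mM sodium succinate and 53 μM DCIP at 23° C with stirring. DCIP reduction followed at 600 nm (ε 21 mM^−1 cm^−1); linear slope minus baseline gives initial rate.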
# Erysiphe graminis = Erysiphe graminis potting method; type: in vivo; settings: Blumeria graminis; 100 mg/L; read-out: Erysiphe graminis control rating
# Experimental: The fungicidal activity of the control agents and target compounds are determined. The test and investigation method refers to SOP-SC-1116 Erysiphe graminis potting method in disinfectant rolls written by KANGZHUO and GUBAOGEN in “Standard operation specification for testing biological activity of pesticides”.
# Sphaerotheca fuliginea [1] = test: Sphaerotheca fuliginea potting method; type: in vivo; settings: Podosphaera fuliginea; 100 mg/L; read-out: Sphaerotheca fuliginea control rating
# Experimental: The fungicidal activity of the control agents and target compounds are determined. The test and investigation method refers to SOP-SC-1101 sphaerotheca fuliginea potting method in disinfectant rolls written by KANGZHUO and GUBAOGEN in “Standard operation specification for testing biological activity of pesticides”.
# Phytophthora infestans = type: cell-based
# Sclerotinia sclerotiorum = test: Mycelial growth rate method; type: cell-based
# Gibberella zeae = type: cell-based
# Rhizoctonia cerealis = test: Mycelial growth rate method; type: cell-based
# Alternaria alternata = test: Mycelial growth rate method; type: cell-based
# Alternaria solani = test: Mycelial growth rate method; type: cell-based
# Phytophthora capsici = test: Mycelial growth rate method; type: cell-based
# [2] = tested on: Fusarium wilt of water melon; test: Mycelial growth rate method; type: cell-based
# Corn big spot = test: Mycelial growth rate method; type: cell-based
# Sphaerotheca fuliginea [3] = test: Field test of sphaerotheca fuliginea; type: in vivo
# Experimental: The test is carried out according to GB/T17980.30-2000 of pesticide field efficacy test guidelines. The survey method is to randomly take four points for each cell and survey all leaves of 2 plants per point. And investigating the sphaerotheca fuliginea incidence before the first application, and investigating the sphaerotheca fuliginea incidence 7 and 14 days after the second application respectively, and calculating the disease index and the controlling effect.
# Fusarium fujikura [4] = test: Therapeutic activity against rice bakanae disease; type: in vivo; settings: 5 μg/mL, solvent DMSO
# Description: (§1) Test of protective activity and therapeutic activity of Compound 1 against rice bakanae disease.
# (§2) The test and investigation method refers to SOP-SC-1112 rice bakanae disease potting method in disinfectant rolls written by KANGZHUO and GUBAOGEN in “Standard operation specification for testing biological activity of pesticides”.
# (§3) The phenamacril is a mainstream medicament for preventing and treating the rice bakanae disease at present, resistant strains are more and more along with long-time use, and […] strains showing sensitivity and one strain showing resistance to the […] are selected as test strains.
# (§4) Four Fusarium fujikura SX18-32, SX18-50, SX18-59 and SX18-63 are selected for testing strains, and the current mainstream commercial bactericide phenamacril is selected as a positive control. Wherein SX18-32, SX18-50 and SX18-59 show sensitivity to phenamacril and SX18-63 show resistance to phenamacril.
# Fusarium fujikura [5] = test: Protective activity against rice bakanae disease; type: in vivo; settings: 5 μg/mL, solvent DMSO
# Description: as §1, §2, §3, §4
# [6] = strain SX18-59 (S), listed as compound 1
# [7] = strain SX18-63 (R), listed as compound 1
# T1 sequence (Q0QF01 43-664 partner): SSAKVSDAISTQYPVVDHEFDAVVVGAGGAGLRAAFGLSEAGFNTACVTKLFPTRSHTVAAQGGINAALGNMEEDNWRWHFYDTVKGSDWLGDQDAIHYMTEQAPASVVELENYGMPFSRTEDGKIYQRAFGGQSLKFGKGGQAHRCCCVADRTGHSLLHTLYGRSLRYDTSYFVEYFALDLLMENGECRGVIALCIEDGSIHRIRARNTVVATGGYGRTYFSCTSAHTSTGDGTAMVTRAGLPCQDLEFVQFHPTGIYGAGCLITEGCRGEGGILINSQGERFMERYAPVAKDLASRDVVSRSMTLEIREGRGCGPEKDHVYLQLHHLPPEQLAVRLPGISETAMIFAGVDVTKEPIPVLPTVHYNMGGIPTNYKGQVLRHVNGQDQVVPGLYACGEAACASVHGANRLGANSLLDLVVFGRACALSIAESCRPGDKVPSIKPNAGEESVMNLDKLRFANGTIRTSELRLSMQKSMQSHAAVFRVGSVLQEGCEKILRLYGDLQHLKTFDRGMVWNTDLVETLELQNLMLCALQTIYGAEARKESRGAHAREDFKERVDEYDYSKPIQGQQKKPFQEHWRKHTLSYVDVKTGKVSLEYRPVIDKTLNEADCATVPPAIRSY
# T1 sequence (Q007T0 29-280): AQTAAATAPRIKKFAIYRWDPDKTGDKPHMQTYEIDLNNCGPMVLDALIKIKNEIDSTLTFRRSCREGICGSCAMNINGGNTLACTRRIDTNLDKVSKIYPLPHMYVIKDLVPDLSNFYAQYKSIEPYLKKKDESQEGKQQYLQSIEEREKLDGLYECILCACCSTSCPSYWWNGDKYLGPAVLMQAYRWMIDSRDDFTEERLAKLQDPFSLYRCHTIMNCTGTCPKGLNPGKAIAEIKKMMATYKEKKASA
# T1 sequence (D0VWV4 30-169): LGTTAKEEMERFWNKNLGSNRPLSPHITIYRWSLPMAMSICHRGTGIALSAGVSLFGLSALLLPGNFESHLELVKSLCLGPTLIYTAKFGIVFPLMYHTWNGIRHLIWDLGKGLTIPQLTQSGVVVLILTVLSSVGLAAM
# T1 sequence (A5GZW8 57-159 limits assumed): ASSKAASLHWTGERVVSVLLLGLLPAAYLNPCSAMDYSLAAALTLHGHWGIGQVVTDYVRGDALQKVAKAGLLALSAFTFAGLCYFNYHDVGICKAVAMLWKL
smiles,measurement,setting,value
C=C(CN(C(=O)c1c(C(F)F)nn(C)c1F)C1CC1)c1ccc(Cl)cc1Cl [Compound 1],inhibition at 10 µM,succinate dehydrogenase,> 90%
same,pest or weed control at 100 µg/mL,Erysiphe graminis,80 to 100%
same,pest or weed control at 100 µg/mL,Sphaerotheca fuliginea [1],80 to 100%
same,Inhibition ratio (%) Phytophthora infestans,Phytophthora infestans; 1.5625 μg/mL,A (80% ≤ A ≤ 100%)
same,Inhibition ratio (%) Phytophthora infestans,Phytophthora infestans; 6.25 μg/mL,A (80% ≤ A ≤ 100%)
same,Inhibition ratio (%) Phytophthora infestans,Phytophthora infestans; 25 μg/mL,A (80% ≤ A ≤ 100%)
same,Inhibition ratio (%) Sclerotinia sclerotiorum,Sclerotinia sclerotiorum; 1.5625 μg/mL,C (C <70%)
same,Inhibition ratio (%) Sclerotinia sclerotiorum,Sclerotinia sclerotiorum; 6.25 μg/mL,A (80% ≤ A ≤ 100%)
same,Inhibition ratio (%) Sclerotinia sclerotiorum,Sclerotinia sclerotiorum; 25 μg/mL,A (80% ≤ A ≤ 100%)
same,Inhibition ratio (%) Gibberella zeae,Gibberella zeae; 1.5625 μg/mL,A (80% ≤ A ≤ 100%)
same,Inhibition ratio (%) Gibberella zeae,Gibberella zeae; 6.25 μg/mL,A (80% ≤ A ≤ 100%)
same,Inhibition ratio (%) Gibberella zeae,Gibberella zeae; 25 μg/mL,A (80% ≤ A ≤ 100%)
same,Inhibition ratio (%) Rhizoctonia cerealis,Rhizoctonia cerealis; 1.5625 μg/mL,C (C <70%)
same,Inhibition ratio (%) Rhizoctonia cerealis,Rhizoctonia cerealis; 6.25 μg/mL,B (70% ≤ B < 80%)
same,Inhibition ratio (%) Rhizoctonia cerealis,Rhizoctonia cerealis; 25 μg/mL,A (80% ≤ A ≤ 100%)
same,Inhibition ratio (%) Alternaria alternata,Alternaria alternata; 1.5625 μg/mL,A (80% ≤ A ≤ 100%)
same,Inhibition ratio (%) Alternaria alternata,Alternaria alternata; 6.25 μg/mL,A (80% ≤ A ≤ 100%)
same,Inhibition ratio (%) Alternaria alternata,Alternaria alternata; 25 μg/mL,A (80% ≤ A ≤ 100%)
same,Inhibition ratio (%) Alternaria solani,Alternaria solani; 1.5625 μg/mL,A (80% ≤ A ≤ 100%)
same,Inhibition ratio (%) Alternaria solani,Alternaria solani; 6.25 μg/mL,A (80% ≤ A ≤ 100%)
same,Inhibition ratio (%) Alternaria solani,Alternaria solani; 25 μg/mL,A (80% ≤ A ≤ 100%)
same,Inhibition ratio (%) Phytophthora capsici,Phytophthora capsici; 1.5625 μg/mL,B (70% ≤ B < 80%)
same,Inhibition ratio (%) Phytophthora capsici,Phytophthora capsici; 6.25 μg/mL,A (80% ≤ A ≤ 100%)
same,Inhibition ratio (%) Phytophthora capsici,Phytophthora capsici; 25 μg/mL,A (80% ≤ A ≤ 100%)
same,Inhibition ratio (%) Fusarium wilt of water melon,[2]; 1.5625 μg/mL,A (80% ≤ A ≤ 100%)
same,Inhibition ratio (%) Fusarium wilt of water melon,[2]; 6.25 μg/mL,A (80% ≤ A ≤ 100%)
same,Inhibition ratio (%) Fusarium wilt of water melon,[2]; 25 μg/mL,A (80% ≤ A ≤ 100%)
same,Inhibition ratio (%) Corn big spot,Corn big spot; 1.5625 μg/mL,A (80% ≤ A ≤ 100%)
same,Inhibition ratio (%) Corn big spot,Corn big spot; 6.25 μg/mL,A (80% ≤ A ≤ 100%)
same,Inhibition ratio (%) Corn big spot,Corn big spot; 25 μg/mL,A (80% ≤ A ≤ 100%)
same,Controlling effect %,Sphaerotheca fuliginea [3]; 50 mg/L,82%
same,Controlling effect %,"Sphaerotheca fuliginea [3]; 50 mg/L, listed as compound 1",more than 80%
same,Controlling effect %,Sphaerotheca fuliginea [3]; 100 mg/L,88%
same,Controlling effect %,"Sphaerotheca fuliginea [3]; 100 mg/L, listed as compound 1",the same control effect as the current mainstream insecticides
same,Controlling effect %,Sphaerotheca fuliginea [3]; 200 mg/L,92%
same,Therapeutic activity,Fusarium fujikura [4]; strain SX18-32 (S),60.2%
same,Therapeutic activity,Fusarium fujikura [4]; strain SX18-59 (S),96.8%
same,Therapeutic activity,Fusarium fujikura [4]; [6],96.8%
same,Therapeutic activity,Fusarium fujikura [4]; strain SX18-63 (R),83.3%
same,Therapeutic activity,Fusarium fujikura [4]; [7],far better therapeutic effect
same,Protective activity,Fusarium fujikura [5]; strain SX18-32 (S),97.4%
same,Protective activity,"Fusarium fujikura [5]; strain SX18-32 (S), listed as compound 1",more than 90%
same,Protective activity,Fusarium fujikura [5]; strain SX18-59 (S),100.0%
same,Protective activity,Fusarium fujikura [5]; [6],more than 90%
same,Protective activity,Fusarium fujikura [5]; strain SX18-63 (R),93.7%
same,Protective activity,Fusarium fujikura [5]; [7],more than 90%
